Where a name gives a salt, the structure may show the parent alone. Where only a bound is given, the exact number is not on record here.

In this test the target is T1, full-length human PKCι (Homo sapiens, UniProt P41743).
T1 construct: Recombinant, full-length human PKCι expressed in Sf21 insect cells is also commercially available; purchased; host or cells: Sf21 insect cells
T1 sequence (P41743 1-596): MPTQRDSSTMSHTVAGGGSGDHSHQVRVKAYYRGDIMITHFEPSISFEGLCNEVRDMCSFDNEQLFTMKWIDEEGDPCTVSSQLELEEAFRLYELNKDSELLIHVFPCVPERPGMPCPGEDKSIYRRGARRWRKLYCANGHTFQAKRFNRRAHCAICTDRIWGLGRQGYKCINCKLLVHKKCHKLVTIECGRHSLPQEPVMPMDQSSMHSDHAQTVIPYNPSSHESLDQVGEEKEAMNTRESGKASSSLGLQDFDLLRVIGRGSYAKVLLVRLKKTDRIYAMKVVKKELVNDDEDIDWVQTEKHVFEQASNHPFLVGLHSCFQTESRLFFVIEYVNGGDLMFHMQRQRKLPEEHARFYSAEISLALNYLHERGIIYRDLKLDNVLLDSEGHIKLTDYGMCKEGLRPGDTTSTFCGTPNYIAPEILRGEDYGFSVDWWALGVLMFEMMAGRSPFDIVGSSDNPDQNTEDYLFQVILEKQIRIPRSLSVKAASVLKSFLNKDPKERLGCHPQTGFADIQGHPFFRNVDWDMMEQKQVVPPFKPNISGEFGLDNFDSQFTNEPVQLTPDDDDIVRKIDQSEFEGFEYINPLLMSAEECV
The test can be described thus: PKCι IC50 IMAP assay, full-length PKCι at 150 μM ATP. Type of test: biochemical. The note with it: read-out: IC50 in IMAP assay against full length PKCi at 150 μM ATP. The gist of the method: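 Recombinant full-length human PKCι (Sf21-expressed, typically 15 pM) phosphorylated 100 nM 5FAM-labelled PKCε pseudosubstrate-derived peptide with 150 μM ATP (5× KM^APP) in 18 mM tris-HCl pH7.5, 9 mM MgCl2, EGTA, DTT, 4% DMSO. After 60 min at room temperature, IMAP binding reagent was added for 2 h and fluorescence polarisation read.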

As for `CN1CCN(c2cccc(Nc3cc(-c4nc(N5CCC(O)C(O)C5)c5c(C6CC6)cncc5n4)ccn3)c2)CC1` (single isomer, unassigned) [Example 751, (3R,4S or 3R,4S)-1-(5-Cyclopropyl-2-{2-[3-(4-methyl-piperazin-1-yl)-phenylamino]-pyridin-4-yl}-pyrido[3,4-d]pyrimidin-4-yl)-piperidine-3,4-diol], the IC50 was less than 100 nM.
Under `CCOc1ccc(F)c(Nc2cc(-c3nc(N4CCNCC4)c4c(C5CC5)cncc4n3)ccn2)c1F` [Example 567, [4-(5-Cyclopropyl-4-piperazin-1-yl-pyrido[3,4-d]pyrimidin-2-yl)-pyridin-2-yl]-(3-ethoxy-2,6-difluoro-phenyl)-amine] stands less than 100 nM; under `N[C@H](CNc1nc(-c2ccncc2)nc2c(Nc3ncccn3)nccc12)Cc1ccccc1` [Example 124, 4-N-[(2S)-2-amino-3-phenylpropyl]-2-(pyridin-4-yl)-8-N-(pyrimidin-2-yl)pyrido[3,4-d]pyrimidine-4,8-diamine], 1000 to 10000 nM.
The same measure for `Nc1cccc(CC(=O)Nc2cc(-c3nc(N[C@@H]4CCNC4)c4ccncc4n3)ccn2)c1` [Example 317, 2-(3-Amino-phenyl)-N-{4-[4-((R)-pyrrolidin-3-ylamino)-pyrido[3,4-d]pyrimidin-2-yl]-pyridin-2-yl}-acetamide]: 100 to 1000 nM; for `CS(=O)(=O)CCN1CCN(c2nc(-c3ccnc(NC(=O)C4CC4)c3)nc3cncc(C4CC4)c23)CC1` [Example 665, Cyclopropane-carboxylic acid (4-{5-cyclopropyl-4-[4-(2-methanesulfonyl-ethyl)-piperazin-1-yl]-pyrido[3,4-d]pyrimidin-2-yl}-pyridin-2-yl)-amide]: 1000 to 10000 nM; for `FC(F)(F)c1cc2c(-c3nc(N4CCOCC4)c4c(C5CC5)cncc4n3)ccnc2[nH]1` [Example 1227, 5-Cyclopropyl-4-morpholin-4-yl-2-(2-trifluoromethyl-1H-pyrrolo[2,3-b]pyridin-4-yl)-pyrido[3,4-d]pyrimidine]: 10000 to 40000 nM.
As to `OCC1CN(c2nc(-c3ccnc4[nH]c(C(F)(F)F)cc34)nc3cncc(C4CC4)c23)C1` [Example 1243, {1-[5-Cyclopropyl-2-(2-tritluoromethyl-1H-pyrrolo[2,3-b]pyridin-4-yl)-pyrido[3,4-d]pyrimidin-4-yl]-azetidin-3-yl}-methanol], the IC50 was 1000 to 10000 nM.
The same measure for `Fc1nc(C2CC2)ccc1Nc1cc(-c2nc(N3CCNCC3)c3c(C4CC4)cncc3n2)ccn1` [Example 725, (6-Cyclopropyl-2-fluoro-pyridin-3-yl)-[4-(5-cyclopropyl-4-piperazin-1-yl-pyrido[3,4-d]pyrimidin-2-yl)-pyridin-2-yl]-amine; bis-trifluoroacetic acid salt]: less than 100 nM; for `O[C@@H]1CCCN(c2nc(-c3ccnc(Nc4cccc(F)n4)c3)nc3cncc(C4CC4)c23)C1` [Example 806, (R)-1-{5-Cyclopropyl-2-[2-(6-fluoro-pyridin-2-ylamino)-pyridin-4-yl]-pyrido[3,4-d]pyrimidin-4-yl}-piperidin-3-ol]: 1000 to 10000 nM; for `CSc1nccc2c(NC[C@@H](N)Cc3ccccc3)nc(-c3ccncc3)nc12` [Example 130, N-[(2S)-2-amino-3-phenylpropyl]-8-(methylsulfanyl)-2-(pyridin-4-yl)pyrido[3,4-d]pyrimidin-4-amine]: 1000 to 10000 nM.
As for `N[C@H](CNc1nc(-c2ccncc2)nc2c(Nc3cccc(Cl)c3)nccc12)Cc1ccccc1` [Example 125, 4-N-[(2S)-2-amino-3-phenylpropyl]-8-N-(3-chlorophenyl)-2-(pyridin-4-yl)pyrido[3,4-d]pyrimidine-4,8-diamine], the IC50 was in the range of 1000 to 10000 nM.
Under `CC(C)c1ccc(Nc2cc(-c3nc(N4CCNCC4)c4c(C5CC5)cncc4n3)ccn2)c(F)c1` [Example 714, [4-(5-Cyclopropyl-4-piperazin-1-yl-pyrido[3,4-d]pyrimidin-2-yl)-pyridin-2-yl]-(2-fluoro-4-isopropyl-phenyl)-amine] stands less than 100 nM; under `NC(=O)COc1ccc(Nc2cc(-c3nc(N[C@@H]4CCNC4)c4ccncc4n3)ccn2)cc1` [Example 310, 2-(4-{4-[4-((R)-Pyrrolidin-3-ylamino)-pyrido[3,4-d]pyrimidin-2-yl]-pyridin-2-ylamino}-phenoxy)-acetamide], 100 to 1000 nM; under `CS(=O)(=O)Nc1cccc(-c2nccc3c(NC[C@@H](N)Cc4ccccc4)nc(-c4ccncc4)nc23)c1` [Example 88, N-{3-[4-((S)-2-Amino-3-phenyl-propylamino)-2-pyridin-4-yl-pyrido[3,4-d]pyrimidin-8-yl]-phenyl}-methanesulfonamide], 100 to 1000 nM.
Under `COc1cncc2nc(-c3ccnc(NC(=O)Cc4ccncc4)c3)nc(N3CCNCC3)c12` [Example 400, N-[4-(5-Methoxy-4-piperazin-1-yl-pyrido[3,4-d]pyrimidin-2-yl)-pyridin-2-yl]-2-pyridin-4-yl-acetamide] stands less than 100 nM.
Under `c1cc(-c2nc(N3CCNCC3)c3c(C4CCC4)cncc3n2)c2c3c([nH]c2n1)CCCC3` [Example 2199, 4-(5-Cyclobutyl-4-piperazin-1-yl-pyrido[3,4-d]pyrimidin-2-yl)-6,7,8,9-tetrahydro-5H-pyrido[2,3-b]indole] stands 100 to 1000 nM.
In the case of `c1cc(-c2nc(N3CCNCC3)c3c(C4CCC4)cncc3n2)c2cc([C@H]3C[C@H]4CC[C@@H]3C4)[nH]c2n1` (racemic) [Example 2135, (±)-endo-2-(2-Bicyclo[2.2.1]hept-2-yl-1H-pyrroIo[2,3-b]pyridin-4-yl)-5-cyclobutyl-4-piperazin-1-yl-pyridor3,4-d]pyrimidine], the IC50 is less than 100 nM.
Under `COc1cncc2nc(-c3ccnc(Nc4ccc5c(C)n(C)nc5c4)c3)nc(N3CCNCC3)c12` [Example 490, (2,3-Dimethyl-2H-indazol-6-yl)-[4-(5-methoxy-4-piperazin-1-yl-pyrido[3,4-d]pyrimidin-2-yl)-pyridin-2-yl]-amine] stands less than 100 nM; under `COc1cncc2nc(-c3ccnc(Nc4ccccc4)c3)nc(N3CCN[C@@H](CCO)C3)c12` [Example 225, 2-{(S)-4-[5-Methoxy-2-(2-phenylamino-pyridin-4-yl)-pyrido[3,4-d]pyrimidin-4-yl]-piperazin-2-yl}-ethanol], 100 to 1000 nM.
Under `Fc1cccc(F)c1Nc1cc(-c2nc(N3CCNCC3)c3c(Cl)cncc3n2)ccn1` [Example 254, [4-(5-Chloro-4-piperazin-1-yl-pyrido[3,4-d]pyrimidin-2-yl)-pyridin-2-yl]-(2,6-difluoro-phenyl)-amine] stands less than 100 nM; under `Oc1nc(-c2ccnc(Nc3cnn(CC4CCNCC4)c3)c2)nc2cnccc12` [Example 499, 2-[2-(1-Piperidin-4-ylmethyl-1H-pyrazol-4-ylamino)-pyridin-4-yl]-pyrido[3,4-d]pyrimidin-4-ol], 10000 to 40000 nM.
With `c1ccc(Nc2cc(-c3nc(N4CCNCC4)c4c(C5CCC5)cncc4n3)ccn2)cc1` [Example 619, [4-(5-Cyclobutyl-4-piperazin-1-yl-pyrido[3,4-d]pyrimidin-2-yl)-pyridin-2-yl]-phenyl-amine], the 50% inhibitory concentration (IC50) is less than 100 nM.
Under `CCOc1cccc(-c2nccc3c(NC[C@@H](N)Cc4ccccc4)nc(-c4ccncc4)nc23)c1` [Example 117, N-[(2S)-2-amino-3-phenylpropyl]-8-(3-ethoxy-phenyl)-2-(pyridin-4-yl)-pyrido[3,4-d]-pyrimidin-4-amine] stands 1000 to 10000 nM.
For the molecule `CN[C@H](CNc1nc(-c2ccncc2)nc2cncc(OC)c12)Cc1ccccc1` [Example 41, [(2S)-1-{[5-methoxy-2-(pyridin-4-yl)-pyrido[3,4-d]-pyrimidin-4-yl]-amino}-3-phenylpropan-2-yl](methyl)amine], the IC50 was less than 100 nM.
The same measure for `Fc1ccc(C2(c3cc4c(-c5nc(N6CCNCC6)c6c(C7CC7)cncc6n5)ccnc4[nH]3)CC2)cc1` [Example 2048, 5-Cyclopropyl-2-{2-[1-(4-fluoro-phenyl)-cyclopropyl]-1H-pyrrolo[2,3-b]pyridin-4-yl}-4-piperazin-1-yl-pyrido[3,4-d]pyrimidine]: less than 100 nM; for `CN(c1nc(-c2ccnc(Nc3nc(F)c(F)cc3F)c2)nc2cncc(C3CCC3)c12)C1CCNCC1` [Example 2163, {5-Cyclobutyl-2-[2-(3,5,6-trifluoro-pyridin-2-ylamino)-pyridin-4-yl]-pyrido[3,4-d]pyrimidin-4-yl}-methyl-piperidin-4-yl-amine]: less than 100 nM.
Regarding `c1cc(Nc2cc(-c3nc(N4CCNCC4)c4c(C5CC5)cncc4n3)ccn2)cc(N2CCOCC2)c1` [Example 2023, [4-(5-Cyclopropyl-4-piperazin-1-yl-pyrido[3,4-d]pyrimidin-2-yl)-pyridin-2-yl]-(3-morpholin-4-yl-phenyl)-amine], the IC50 is less than 100 nM.
Take `N[C@H](CNc1nc(-c2ccncc2)nc2c(-c3ccccc3O)nccc12)Cc1ccccc1` [Example 105, 2-(4-{[(2S)-2-amino-3-phenylpropyl]-amino}-2-(pyridin-4-yl)-pyrido[3,4-d]-pyrimidin-8-yl)phenol]: the concentration for half-maximal inhibition (IC50) was less than 100 nM.

What is called IC50 is the concentration that inhibits the measured activity by half.

Source of the values: patent US9914730B2, “Azaquinazoline inhibitors of Atypical protein Kinase C” (Ignyta, Inc., priority 2012, dated 2018).
